Key:
[1] = tested on: PM1; assay: MTBE degradation kinetics by PM1; assay type: cell-based, Methylibium petroleiphilum PM1
[2] = tested on: M. petroleiphilum PM1; assay: PM1 growth in mineral salts medium (MSM) on a sole carbon source; assay type: cell-based, Methylibium petroleiphilum PM1; details: for doubling time of PM1 cells, t1/2: cells growing on the substance as sole carbon source; for concentration up to which PM1 is capable of growth: on MSM
[3] = tested on: M. petroleiphilum PM1; assay: PM1 tolerance of MTBE on tryptic soy broth media; assay type: cell-based, Methylibium petroleiphilum PM1
[4] = tested on: n-alkane grown GPo 1; details: cited from earlier work
[5] = used to calculate solution-phase concentration; cited from earlier work

Structure (SMILES)	apparent half saturation constant for MTBE [1] [µM]	doubling time of PM1 cells, t1/2 [2] [h]	concentration up to which PM1 is capable of growth [2]	tolerated concentration [3]	Ks values for MTBE [4] [mM]	dimensionless Henry's constant [5]
COC(C)(C)C [MTBE, methyl tert-butyl ether]	88	15	up to 1000 mg/L	up to 5,000 mg/L	20 to 40	0.023
CCO [ethanol]	–	6.1	up to 7.9 g/L	–	–	–
